{"source": "PubChem BioAssay AID849", "about": "(SRMLSC, 2007)", "note": "Activity calls are given as the source filed them. No rule for the calls is given here."}
{"tested_on": "Saccharomyces cerevisiae lifespan shortening, growth inhibition", "experiment": "yeast lifespan shortening compounds, dose response (AID 849);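 also: yeast growth read as optical density after two days at 30 degrees C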"}
{"smiles": "Fc1ccc(Br)cc1C1C=C(c2cccnc2)Nc2ncnn21", "note": "(centres undefined)", "IC50": "> 100 µM (inactive)"}
{"smiles": "OC(CN1CCN(c2ccccn2)CC1)Cn1c2ccc(Cl)cc2c2cc(Cl)ccc21", "note": "(centres undefined)", "IC50": "47.5 µM"}
{"smiles": "CCOC(=O)c1c(NC(=S)Nc2ccc(Cl)cc2)sc2c1CCN(C)C2", "IC50": "7.82 µM"}
{"smiles": "Cc1ccc(N=Cc2cccc(O)c2O)c(C)c1", "IC50": "13.1 µM"}
{"smiles": "Oc1ccc(CN2CCCCC2)c2cccnc12", "IC50": "46.4 µM"}
{"smiles": "O=C(/C=C/c1ccccc1Cl)c1ccccc(=O)c1O", "IC50": "9.76 µM"}
{"smiles": "C/C(=N\\Nc1ccc(Cl)c(Cl)c1)c1ccc(-n2ccnc2)cc1", "IC50": "30.1 µM"}
{"smiles": "O=Nc1c(O)n(Cc2ccc(Cl)c(Cl)c2)c2ccccc12", "IC50": "> 100 µM (inactive)"}
{"smiles": "O=C1OCC(CO)(CO)N=C1NNc1cc(Cl)ccc1Cl", "IC50": "16.2 µM"}
{"smiles": "CCCn1c(C(C)NC(C)=O)nc2ccccc21", "note": "(centres undefined)", "IC50": "> 100 µM (inactive)"}
{"smiles": "CCOC(=O)c1sc(=S)n(-c2cc(F)ccc2F)c1N", "IC50": "> 100 µM (inactive)"}
{"smiles": "Cc1ccc(COc2ccc(Br)cc2/C=N/O)cc1", "IC50": "> 100 µM (inactive)"}
{"smiles": "Cc1ccnn2cc3c(=O)n(C)c(=O)n(C)c3c12", "IC50": "23.2 µM"}
{"smiles": "O=C(O)c1cc(-c2ccc(/C=N/Nc3ccc(Cl)cc3)o2)ccc1Cl", "IC50": "11.7 µM"}
{"smiles": "CC1=C/C(=N\\OS(=O)(=O)c2ccccc2)C(C)=CC1=O", "IC50": "1.54 µM"}
{"smiles": "O=C(O)Cc1cc(I)c(Oc2ccc(O)c(I)c2)c(I)c1", "IC50": "23.9 µM"}
{"smiles": "O=S(=O)(NC1CC2CCC1C2)c1ccc(Br)s1", "note": "(centres undefined)", "IC50": "2.07 µM"}
{"smiles": "COc1ccc(Nc2cnn(-c3nc4ccccc4s3)c(=O)c2Cl)cc1", "IC50": "> 100 µM (inactive)"}
{"smiles": "CC(C)(C)c1ccc(-c2nc(-c3ccncc3)no2)cc1", "IC50": "23.1 µM"}
{"smiles": "O=[N+]([O-])c1ccc(O)c2ncccc12", "IC50": "0.575 µM"}
{"smiles": "CCc1ccc(/C=C/C(=O)c2cc(Br)ccc(=O)c2O)cc1", "IC50": "9.89 µM"}
{"smiles": "OCCN(CCO)CC(O)COc1ccc(C23CC4CC(CC(C4)C2)C3)cc1", "note": "(centres undefined)", "IC50": "35.7 µM"}
{"smiles": "O=C1c2ccccc2C(=O)C1c1ccc2ccccc2n1", "IC50": "> 100 µM (inactive)"}
{"smiles": "COc1ccc(-c2[nH]ncc2-c2ccc(Cl)cc2)c(O)c1", "IC50": "> 100 µM (inactive)"}
{"smiles": "CC1=CC(=O)C=C(C)C1=NOS(=O)(=O)c1ccccc1", "IC50": "> 100 µM (inactive)"}
{"smiles": "NNC(=O)c1cccc(COc2ccc(Br)cc2)c1", "IC50": "41.9 µM"}
{"smiles": "O=C(CSc1cccc[n+]1[O-])c1cc2ccccc2o1", "IC50": "2.97 µM"}
{"smiles": "Brc1ccccc1-c1nnc(CSc2nnc3sc4ccccc4n23)o1", "IC50": "> 100 µM (inactive)"}
{"smiles": "COc1ccc(OCCNC2CCCC2)cc1", "IC50": "> 100 µM (inactive)"}
{"smiles": "COc1ccc(NC(=O)CC2SC(=Nc3ccccc3)NC2=O)c(OC)c1", "note": "(centres undefined)", "IC50": "> 100 µM (inactive)"}
{"smiles": "O=C1Cc2ccccc2C(=O)N1CCc1ccccc1", "IC50": "> 100 µM (inactive)"}
{"smiles": "CCOC(=O)C1=Nc2ccccc2C1=[N+]=[N-]", "IC50": "5.58 µM"}
{"smiles": "COc1ccc(/C(C)=N/NC(=O)c2ccc(CSc3cccc4cccnc34)cc2)cc1OC", "IC50": "> 100 µM (inactive)"}
{"smiles": "O=C(CC(=O)c1ccccc1O)c1ccc(F)cc1", "IC50": "> 100 µM (inactive)"}
{"smiles": "CCCn1c(Nc2nc3ccccc3n2C)nc2ccccc21", "IC50": "43.3 µM"}
{"smiles": "O=[N+]([O-])c1ccc(CN2CCCCCC2)s1", "IC50": "> 100 µM (inactive)"}
{"smiles": "COc1ccc(CN2CN(C(C)C)CSC2=S)cc1", "IC50": "35.3 µM"}
{"smiles": "Oc1c(C(Nc2nc3ccccc3s2)c2ccco2)ccc2cccnc12", "note": "(centres undefined)", "IC50": "> 100 µM (inactive)"}
{"smiles": "Cn1c(=O)c(C(=O)Nc2ncccn2)c(O)c2ccccc21", "IC50": "33 µM"}
{"smiles": "Cc1[nH]n(-c2ccccc2)c(=O)c1/C=N/Nc1nncc(-c2ccccc2)n1", "IC50": "19.3 µM"}
{"smiles": "O=C1OCC(CO)(CO)N=C1NNc1ccccc1Cl", "IC50": "6.45 µM"}
{"smiles": "Nc1ccc(C(=O)OCC(=O)Nc2ccc3c(c2)OCO3)cc1[N+](=O)[O-]", "IC50": "> 100 µM (inactive)"}
{"smiles": "O=C1NC(c2ccccn2)Nc2sc3c(c21)CCC3", "note": "(centres undefined)", "IC50": "> 100 µM (inactive)"}
{"smiles": "O=C1c2ccccc2NC(c2ccc(-c3cccc(Cl)c3)o2)N1O", "note": "(centres undefined)", "IC50": "35 µM"}
{"smiles": "CCOC(=O)c1c(/N=C/c2cccc([N+](=O)[O-])c2O)sc(C)c1C", "IC50": "18.5 µM"}
{"smiles": "CN1C(=O)/C(=N/OC(=O)c2ccccc2)c2ccccc21", "IC50": "> 100 µM (inactive)"}
{"smiles": "CC(=O)N1c2ccccc2C2(O)N=C(C)SC12", "note": "(centres undefined)", "IC50": "> 100 µM (inactive)"}
{"smiles": "c1ccc2c(c1)C(=Nn1cnnc1)c1ccccc1-2", "IC50": "> 100 µM (inactive)"}
{"smiles": "CSC1=NSC2=NC(=O)/C(=C\\c3coc4ccccc4c3=O)C(=N)N12", "IC50": "> 100 µM (inactive)"}
{"smiles": "Oc1c(CN2CCN(c3ccc(F)cc3)CC2)cc(Cl)c2cccnc12", "IC50": "10.2 µM"}
{"smiles": "CCCC1COC(Cn2cncn2)(c2ccc(C)cc2)O1", "note": "(centres undefined)", "IC50": "3.94 µM"}
{"smiles": "Cc1cc(C)c2c(=O)n(CC(=O)N3CCC(Cc4ccccc4)CC3)sc2n1", "IC50": "> 100 µM (inactive)"}
{"smiles": "Cc1ccc(-c2nn3c(C)nnc3s2)cc1NC(=O)c1ccc(OC(C)C)cc1", "IC50": "> 100 µM (inactive)"}
{"smiles": "Cc1ccccc1NC(=S)c1nc2ccccc2[nH]1", "IC50": "29.5 µM"}
{"smiles": "Cc1cccc(OCCN2CSC(=S)N(C)C2)c1", "IC50": "13 µM"}
{"smiles": "O=C(c1ccccc1)c1ccc2nc(N3CCCCC3)c3nncn3c2c1", "IC50": "> 100 µM (inactive)"}
{"smiles": "CC(C)(CNC(=S)NCCc1ccccc1)CNC(=S)NCCc1ccccc1", "IC50": "> 100 µM (inactive)"}
{"smiles": "CCOC(=O)c1cc([N+](=O)[O-])c([N+](=O)[O-])cc1NC(C)=O", "IC50": "< 0.098 µM"}
{"smiles": "COc1ccccc1OCCN1CSC(=S)N(C)C1", "IC50": "11.8 µM"}
